Assay results from patent US12568967B2, “Compositions comprising pyridine carboxylate herbicides with synthetic auxin herbicides or auxin transport inhibitors” (priority 2018, dated 2026).
Where two headings read alike, the source gives them in different places.

Tests used:
[1] = system: Veronica hederifolia (ivyleaf speedwell, VERHE); test: Greenhouse postemergence trial VERHE; format: in vivo; conditions: Veronica hederifolia, post-emergence, read-out: % visual injury Obs
[2] = system: Stellaria media (chickweed, STEME); test: Greenhouse postemergence trial STEME; format: in vivo; conditions: Stellaria media, post-emergence, read-out: % visual injury Obs
Method: (§1) Seeds of the desired test plant species were planted in a 90:10% v/v (volume/volume) mixture of PRO-MIX® BX (Premier Tech Horticulture, Quakertown, PA, USA) and PROFILE® GREENS GRADE™ (Profile Products LLC, Buffalo Grove, IL, USA) planting mixture, which typically has a pH of 5.2 to 6.2 and an organic matter content of at least 50 percent, in plastic pots with a surface area of 103.2 square centimeters (cm^2). […] The plants were grown for 7-36 days (d) in a greenhouse with an approximate 14-hour (h) photo-period which was maintained at about 23° C. during the day and 22° C. during the night. Nutrients and water were added on a regular basis and supplemental lighting was provided with overhead metal halide 1000-Watt lamps as necessary. The plants were employed for testing when they reached the second or third true leaf stage.
(§2) Emulsifiable concentrates of each of each pyridine carboxylate herbicide (Compound A or Compound B) were prepared at 100 grams acid equivalent per liter (g ae/L). The emulsifiable concentrates also included a safener, cloquintocet-mexyl, at 120 grams active ingredient per liter (g ai/L), unless otherwise noted below. An aliquot of each emulsifiable concentrate was placed in a 25 mL glass vial and diluted with an aqueous mixture of 1.25% (v/v) ACTIROB® B esterified rapeseed oil (Bayer Crop Science, Research Triangle Park, NC, USA) or MSO® Concentrate with LECI-TECH® methylated soybean oil (Loveland Products, Loveland, CO, USA) to obtain concentrated stock solutions at the highest application rate for each herbicide, based upon a 12 milliliter (mL) application volume at a rate of 187 liters per hectare (L/ha). The concentrated stock solutions were further diluted with an aqueous mixture of 1.25% v/v ACTIROB® B or MSO® Concentrate with LECI-TECH® to obtain stock solutions at reduced application rates for each herbicide. Spray solutions of the herbicide combinations (Compound A or Compound B plus synthetic auxin herbicide or auxin transport inhibitor) were prepared by adding weighed amounts or aliquots of the synthetic auxin herbicide or auxin transport inhibitor to the stock solutions of Compound A or Compound B to form 12-mL spray solutions in two-way combinations.
(§3) The spray solutions were applied to the plant material with an overhead Mandel track sprayer equipped with 8002E nozzles calibrated to deliver 187 L/ha over an application area of 0.503 square meters (m^2) at a spray height of 18 inches (43 centimeters (cm)) above the average plant canopy. Control plants were sprayed in the same manner with the solvent blank. All pyridine carboxylate herbicide (component a) application rates are given as “g ae/ha” and all synthetic auxin herbicide or auxin transport inhibitor (component b) application rates are given as “g ai/ha.”
(§4) The treated plants and control plants were placed in a greenhouse as described above and watered by sub-irrigation to prevent wash-off of the test compounds. After 20-22 d, the condition of the test plants as compared with that of the control plants was determined visually and scored on a scale of 0 to 100 percent where 0 corresponds to no injury and 100 corresponds to complete kill.

[3] = system: Amaranthus retroflexus (pigweed, AMARE); test: Greenhouse postemergence trial AMARE; format: in vivo;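 further: Greenhouse-grown plants sprayed at second to third true leaf stage, injury rated by eye after 20-22 d versus solvent-blank sprayed controls, 0 = no injury, 100 = complete kill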
[4] = system: Capsella bursa-pastoris (shepherd's purse, CAPBP); test: Greenhouse postemergence trial CAPBP; format: in vivo
Method: as §1, §2, §3, §4

[5] = system: Anthemis arvensis (field chamomile, ANTAR); test: Greenhouse postemergence trial ANTAR; format: in vivo; conditions: Anthemis arvensis, post-emergence, read-out: % visual injury Obs
Method: as §1, §2, §3, §4

[6] = system: Viola tricolor (wild pansy, VIOTR); test: Greenhouse postemergence trial VIOTR;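 further: greenhouse plants sprayed at second to third true leaf stage, injury rated visually after 20-22 d against solvent-blank sprayed controls, 0 meaning no injury and 100 complete kill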
[7] = system: Matricaria chamomilla (wild chamomile, MATCH); test: Greenhouse postemergence trial MATCH; format: in vivo;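 further: greenhouse plants sprayed at second to third true leaf stage, injury rated by eye 20-22 d later versus solvent-blank controls on 0–100 scale, 0 no injury, 100 complete kill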
[8] = system: Brassica napus (winter rape, BRSNW); test: Greenhouse postemergence trial BRSNW; format: in vivo; conditions: Brassica napus, post-emergence, read-out: % visual injury Obs
[9] = system: Veronica persica (bird's-eye speedwell, VERPE); test: Greenhouse postemergence trial VERPE; format: in vivo; conditions: Veronica persica, post-emergence, read-out: % visual injury Obs
Method: as §1, §2, §3, §4

[10] = system: Salsola kali (Russian thistle, SASKR); test: Greenhouse postemergence trial SASKR; format: in vivo;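 further: greenhouse plants sprayed at second or third true leaf stage, injury rated by eye after 20-22 d against solvent-blank controls, 0 meaning no injury, 100 complete kill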
[11] = system: Cirsium arvense (Canadian thistle, CIRAR); test: Greenhouse postemergence trial CIRAR; format: in vivo
Method: as §1, §2, §3, §4

[12] = system: Sinapis arvensis (wild mustard, SINAR); test: Greenhouse postemergence trial SINAR; format: in vivo
[13] = system: Cyanus segetum (cornflower, CENCY); test: Greenhouse postemergence trial CENCY; format: in vivo; conditions: Centaurea cyanus, post-emergence, read-out: % visual injury Obs
[14] = system: Brassica napus (spring rape, BRSNN); test: Greenhouse postemergence trial BRSNN; format: in vivo; conditions: for % visual injury (Obs): BRSNN
Method: The plants were grown for 7-36 days (d) in a greenhouse with an approximate 14-hour (h) photo-period which was maintained at about 23° C. during the day and 22° C. during the night. Nutrients and water were added on a regular basis and supplemental lighting was provided with overhead metal halide 1000-Watt lamps as necessary. The plants were employed for testing when they reached the second or third true leaf stage.
The emulsifiable concentrates also included a safener, cloquintocet-mexyl, at 120 grams active ingredient per liter (g ai/L), unless otherwise noted below.
Control plants were sprayed in the same manner with the solvent blank. All pyridine carboxylate herbicide (component a) application rates are given as “g ae/ha” and all synthetic auxin herbicide or auxin transport inhibitor (component b) application rates are given as “g ai/ha.”
as §4

[15] = system: Papaver rhoeas (corn poppy, PAPRH); test: Greenhouse postemergence trial PAPRH; format: in vivo; conditions: Papaver rhoeas, post-emergence, read-out: % visual injury Obs
[16] = system: Chenopodium album L. (common lambsquarters, CHEAL); test: Greenhouse postemergence trial CHEAL; format: in vivo;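 further: greenhouse plants sprayed at second to third true leaf stage, injury rated by eye after 20-22 d versus solvent-blank sprayed controls, 0 = no injury, 100 = complete kill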
[17] = system: Triticum aestivum (winter wheat, TRZAW); test: Greenhouse postemergence crop phytotoxicity TRZAW; format: in vivo; conditions: TRZAW
[18] = system: Triticum aestivum (spring wheat, TRZAS); format: in vivo; conditions: for % visual injury (Obs) / % visual injury Obs: TRZAS
Method: as §1, §2, §3, §4

[19] = system: Viola arvensis (field violet, VIOAR); test: Greenhouse postemergence trial VIOAR; format: in vivo; conditions: Viola arvensis, post-emergence, read-out: % visual injury Obs
Method: as §1, §2, §3, §4

[20] = system: Papaver rhoeas (corn poppy), herbicide-resistant (PAPRH-R); test: Greenhouse postemergence trial PAPRH-R; format: in vivo; conditions: Papaver rhoeas, post-emergence, read-out: % visual injury Obs
Method: as §1, §2, §3, §4

[21] = system: Hordeum vulgare (spring barley, HORVS); format: in vivo; conditions: for % visual injury (Obs) / % visual injury Obs: HORVS
Method: as §1, §2, §3, §4

[22] = system: Lamium purpureum (purple deadnettle, LAMPU); test: Greenhouse postemergence trial LAMPU
[23] = system: Kochia scoparia (kochia, KCHSC); test: Greenhouse postemergence trial KCHSC; format: in vivo
[24] = system: Polygonum convolvulus (wild buckwheat, POLCO); test: Greenhouse postemergence trial POLCO; format: in vivo
Method: as §1, §2, §3, §4

[25] = system: Hordeum vulgare (winter barley, HORVW); test: Greenhouse postemergence crop phytotoxicity HORVW; format: in vivo; conditions: HORVW
[26] = system: Matricaria inodora (false chamomile, MATIN); test: Greenhouse postemergence trial MATIN; format: in vivo
[27] = system: Matricaria discoidea (pineapple weed, MATMT); test: Greenhouse postemergence trial MATMT; format: in vivo; conditions: Matricaria discoidea, post-emergence, read-out: % visual injury Obs
[28] = Viola tricolor, post-emergence, read-out: % visual injury Obs
[29] = Lamium purpureum, post-emergence, read-out: % visual injury Obs

O=C(O)CCCOc1ccc(Cl)cc1Cl [2,4-DB]
100%: pest or weed control at 560 g/ha [15]
30%: pest or weed control at 560 g/ha ([4]; Capsella bursa-pastoris, post-emergence, read-out: % visual injury Obs) | pest or weed control ([11]; Cirsium arvense, post-emergence, CIRAR, alone, read-out: % visual injury Obs) | % visual injury (Obs) ([12]; SINAR, alone 280 g/ha) | pest or weed control at 560 g/ha [13] | pest or weed control at 560 g/ha [19] | pest or weed control at 560 g/ha [20] | pest or weed control ([23]; Bassia scoparia, post-emergence, KCHSC, alone, read-out: % visual injury Obs) | pest or weed control at 560 g/ha ([24]; Fallopia convolvulus, post-emergence, read-out: % visual injury Obs)
3%: % visual injury (Obs) ([23]; KCHSC, alone 280 g/ha)
10%: pest or weed control at 560 g/ha [2] | pest or weed control at 560 g/ha [5] | pest or weed control ([7]; Matricaria chamomilla, post-emergence, MATCH, alone, read-out: % visual injury Obs) | pest or weed control at 560 g/ha [22, 29] | pest or weed control at 560 g/ha ([26]; Tripleurospermum inodorum, post-emergence, read-out: % visual injury Obs)
70%: % visual injury (Obs) ([14]; alone 280 g/ha)
5%: % visual injury (Obs) ([7]; MATCH, alone 280 g/ha) | pest or weed control at 560 g/ha [27]
85%: plant injury at 560 g/ha [8]
0%: % visual injury Obs ([17]; alone, 560 g/ha) | % visual injury (Obs) ([18]; alone 280 g/ha) | % visual injury Obs ([18]; alone, 560 g/ha) | % visual injury (Obs) ([21]; alone 280 g/ha) | % visual injury Obs ([21]; alone, 560 g/ha) | % visual injury Obs ([25]; alone, 560 g/ha)
60%: pest or weed control at 560 g/ha [1] | % visual injury (Obs) ([3]; AMARE, alone 280 g/ha) | pest or weed control at 560 g/ha [6, 28] | pest or weed control at 560 g/ha [9]
15%: % visual injury (Obs) ([11]; CIRAR, alone 280 g/ha)
13%: % visual injury (Obs) ([24]; POLCO, alone 280 g/ha)
43%: % visual injury (Obs) ([16]; CHEAL, alone 280 g/ha)
50%: pest or weed control ([10]; Salsola kali, post-emergence, SASKR, alone, read-out: % visual injury Obs) | pest or weed control ([12]; Mutarda arvensis, post-emergence, SINAR, alone, read-out: % visual injury Obs)

COC(=O)C1(O)c2ccccc2-c2ccc(Cl)cc21 (stereo not shown) [Chlorflurenol-methyl]
23%: BRSNN Obs (% visual injury) ([14]; chlorflurenol-methyl 140 g/ha)
0%: AMARE Obs (% visual injury) ([3]; chlorflurenol-methyl 140 g/ha) | MATCH Obs (% visual injury) ([7]; chlorflurenol-methyl 140 g/ha) | SASKR Obs (% visual injury) ([10]; chlorflurenol-methyl 140 g/ha) | CIRAR Obs (% visual injury) ([11]; chlorflurenol-methyl 140 g/ha) | CHEAL Obs (% visual injury) ([16]; chlorflurenol-methyl 140 g/ha) | TRZAS Obs (% visual injury) ([18]; chlorflurenol-methyl 140 g/ha) | HORVS Obs (% visual injury) ([21]; chlorflurenol-methyl 140 g/ha) | KCHSC Obs (% visual injury) ([23]; chlorflurenol-methyl 140 g/ha)
18%: SINAR Obs (% visual injury) ([12]; chlorflurenol-methyl 140 g/ha)

Nc1c(Cl)c(Cl)nc(C(=O)O)c1Cl [Picloram]
0%: pest or weed control at 20 g/ha ([4]; Capsella bursa-pastoris, post-emergence, CAPBP, Picloram 20 g/ha, read-out: % visual injury Obs) | % visual injury Obs ([17]; Picloram 20 g/ha) | % visual injury Obs ([18]; Picloram 20 g/ha) | % visual injury (Obs) ([18]; alone 10 g/ha) | % visual injury Obs ([21]; Picloram 20 g/ha) | % visual injury (Obs) ([21]; alone 10 g/ha) | % visual injury Obs ([25]; Picloram 20 g/ha)
8%: % visual injury (Obs) ([14]; alone 10 g/ha)
30%: pest or weed control at 20 g/ha ([5]; ANTAR, Picloram 20 g/ha) | pest or weed control at 20 g/ha ([10]; Salsola kali, post-emergence, SASKR, Picloram 20 g/ha, read-out: % visual injury Obs) | pest or weed control at 20 g/ha ([12]; Mutarda arvensis, post-emergence, SINAR, Picloram 20 g/ha, read-out: % visual injury Obs) | pest or weed control at 20 g/ha ([20]; PAPRH-R, Picloram 20 g/ha) | pest or weed control at 20 g/ha ([26]; Tripleurospermum inodorum, post-emergence, MATIN, Picloram 20 g/ha, read-out: % visual injury Obs)
5%: pest or weed control at 20 g/ha [22, 29]
20%: pest or weed control at 20 g/ha ([15]; PAPRH, Picloram 20 g/ha)
40%: pest or weed control at 20 g/ha ([7]; Matricaria chamomilla, post-emergence, MATCH, Picloram 20 g/ha, read-out: % visual injury Obs) | pest or weed control at 20 g/ha ([24]; Fallopia convolvulus, post-emergence, POLCO, Picloram 20 g/ha, read-out: % visual injury Obs)
10%: pest or weed control at 20 g/ha ([1]; VERHE, Picloram 20 g/ha) | pest or weed control at 20 g/ha ([2]; STEME, Picloram 20 g/ha) | % visual injury (Obs) ([4]; CAPBP, alone 10 g/ha) | % visual injury (Obs) ([6]; VIOTR, alone, 10 g/ha) | pest or weed control at 20 g/ha [6, 28] | plant injury at 20 g/ha ([8]; BRSNW, Picloram 20 g/ha) | pest or weed control at 20 g/ha ([9]; VERPE, Picloram 20 g/ha) | pest or weed control at 20 g/ha ([19]; VIOAR, Picloram 20 g/ha) | % visual injury (Obs) ([22]; LAMPU, alone 10 g/ha) | pest or weed control at 20 g/ha ([23]; Bassia scoparia, post-emergence, KCHSC, Picloram 20 g/ha, read-out: % visual injury Obs) | % visual injury (Obs) ([23]; KCHSC, alone 10 g/ha) | % visual injury (Obs) ([26]; MATIN, alone 10 g/ha) | pest or weed control at 20 g/ha ([27]; MATMT, Picloram 20 g/ha)
60%: pest or weed control at 20 g/ha ([11]; Cirsium arvense, post-emergence, CIRAR, Picloram 20 g/ha, read-out: % visual injury Obs) | pest or weed control at 20 g/ha ([13]; CENCY, Picloram 20 g/ha)
